The subject of one test is liver cancer. As to conditions: phase III of human clinical trials; cited from earlier work.
Test [1] relates to human liver tumor cell line ITRI-H16. Briefly: Cell viability of ITRI-H16 cells after 48-hour treatment, Alarmablue measurement assay. The settings on record: read-out: half maximal inhibitory concentration (IC50) in the ITRI-H16 cell line.

Take `CNC(=O)c1cc(Oc2ccc(NC(=O)Nc3ccc(Cl)c(C(F)(F)F)c3)cc2)ccn1` [Sorafenib]: the “extension of patient survival time” value in the test with liver cancer is listed as “three-month”. For the same molecule, in test [1], the IC50 is around 14 µM.

These data come from patent US20150160195A1, “HUMAN LIVER TUMOR CELL LINE AND METHOD OF AGENT SCREENING” (Industrial Technology Research Institute, priority 2013, published 2015).
